Reference: ChEMBL document CHEMBL1201862, “PubChem BioAssay data set” (2004)
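These data come from cells grown in 96-well plates and exposed to compound for 48 hours at five concentrations. GI50: concentration for 50% inhibition of growth.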 Calls of active or inactive are those of the source. Rule as the data show it: active = GI50 up to about 1.1 µM and inactive = higher.

What was measured:
Assay in all cases: DTP human tumour cell line panel, 48 h
[1] = system: M19-MEL
[2] = system: RPMI-8226
[3] = system: OVCAR-4
[4] = system: HOP-92
[5] = system: COLO 205
[6] = system: NCI-H522
[7] = system: NCI-H23
[8] = system: OVCAR-5
[9] = system: UACC-62
[10] = system: MOLT-4
[11] = system: SF-295
[12] = system: SNB-75
[13] = system: UO-31
[14] = system: A498
[15] = system: SR
[16] = system: KM-20L2
[17] = system: IGROV-1
[18] = system: NCI-H460
[19] = system: Malme-3M
[20] = system: HT-29
[21] = system: HOP-62
[22] = system: SK-OV-3
[23] = system: ACHN
[24] = system: CCRF-CEM
[25] = system: OVCAR-3
[26] = system: SNB-78
[27] = system: UACC-257
[28] = system: SNB-19
[29] = system: HCT-116
[30] = system: DMS-114
[31] = system: SK-MEL-28
[32] = system: LXFL 529
[33] = system: SF-268
[34] = system: U-251
[35] = system: KM12
[36] = system: K562
[37] = system: 786-0
[38] = system: M14
[39] = system: RXF 393
[40] = system: SF-539
[41] = system: NCI/ADR-RES
[42] = system: MDA-N
[43] = system: SK-MEL-5
[44] = system: HL-60
[45] = system: Hs-578T
[46] = system: MDA-MB-231
[47] = system: SW-620
[48] = system: T47D
[49] = system: MDA-MB-435
[50] = system: TK-10
[51] = system: PC-3
[52] = system: DU-145
[53] = system: LOX IMVI
[54] = system: SN12C
[55] = system: OVCAR-8
[56] = system: MCF7
[57] = system: NCI-H226
[58] = system: HCC 2998
[59] = system: SK-MEL-2
[60] = system: EKVX
[61] = system: HCT-15
[62] = system: BT-549
[63] = system: CAKI-1
[64] = system: A549

## COc1ccc2c(c1)CC[C@@H]1C2CC[C@](C)(C#N)C1CC#N (some centres not stated)
[1]
  GI50: > 100 µM (inactive)
[2]
  GI50: > 100 µM (inactive)
[3]
  GI50: > 100 µM (inactive)
[4]
  GI50: > 100 µM (inactive)
[5]
  GI50: > 100 µM (inactive)
[6]
  GI50: > 100 µM (inactive)
[7]
  GI50: > 100 µM (inactive)
[8]
  GI50: > 100 µM (inactive)
[9]
  GI50: > 100 µM (inactive)
[10]
  GI50: > 100 µM (inactive)
[11]
  GI50: > 100 µM (inactive)
[12]
  GI50: > 100 µM (inactive)
[13]
  GI50: > 100 µM (inactive)
[14]
  GI50: > 100 µM (inactive)
[15]
  GI50: > 100 µM (inactive)
[16]
  GI50: > 100 µM (inactive)
[17]
  GI50: > 100 µM (inactive)
[18]
  GI50: > 100 µM (inactive)
[19]
  GI50: > 100 µM (inactive)
[20]
  GI50: > 100 µM (inactive)
[21]
  GI50: > 100 µM (inactive)
[22]
  GI50: > 100 µM (inactive)
[23]
  GI50: > 100 µM (inactive)
[24]
  GI50: > 100 µM (inactive)
[25]
  GI50: > 100 µM (inactive)
[26]
  GI50: > 100 µM (inactive)
[27]
  GI50: > 100 µM (inactive)
[28]
  GI50: > 100 µM (inactive)
[29]
  GI50: > 100 µM (inactive)
[30]
  GI50: > 100 µM (inactive)
[31]
  GI50: > 100 µM (inactive)
[32]
  GI50: > 100 µM (inactive)
[33]
  GI50: > 100 µM (inactive)
[34]
  GI50: > 100 µM (inactive)
[35]
  GI50: > 100 µM (inactive)
[36]
  GI50: > 100 µM (inactive)
[37]
  GI50: > 100 µM (inactive)
[38]
  GI50: > 100 µM (inactive)
[39]
  GI50: > 100 µM (inactive)

## CSC(=S)OC1CC(n2cnc3c(NC(=O)c4ccccc4)ncnc32)OC1CO[Si](C)(C)C(C)(C)C (configuration not stated)
[40]
  GI50: 36.3 µM (inactive)
[41]
  GI50: 9.02 µM (inactive)
[2]
  GI50: 16.3 µM (inactive)
[3]
  GI50: 7.57 µM (inactive)
[4]
  GI50: 13.9 µM (inactive)
[5]
  GI50: 5.85 µM (inactive)
[6]
  GI50: 7.18 µM (inactive)
[7]
  GI50: 13.2 µM (inactive)
[8]
  GI50: 49.4 µM (inactive)
[9]
  GI50: 14.1 µM (inactive)
[10]
  GI50: 2.03 µM (inactive)
[11]
  GI50: 9.82 µM (inactive)
[42]
  GI50: 7.87 µM (inactive)
[12]
  GI50: 34.1 µM (inactive)
[43]
  GI50: 5.45 µM (inactive)
[13]
  GI50: 4.4 µM (inactive)
[44]
  GI50: 2.84 µM (inactive)
[45]
  GI50: 38.8 µM (inactive)
[14]
  GI50: 19.1 µM (inactive)
[46]
  GI50: 41.1 µM (inactive)
[47]
  GI50: 12.5 µM (inactive)
[48]
  GI50: 5 µM (inactive)
[15]
  GI50: 11 µM (inactive)
[17]
  GI50: 27.2 µM (inactive)
[49]
  GI50: 6.12 µM (inactive)
[50]
  GI50: 35.6 µM (inactive)
[18]
  GI50: 11.1 µM (inactive)
[51]
  GI50: 5.64 µM (inactive)
[19]
  GI50: 21.1 µM (inactive)
[20]
  GI50: 9.18 µM (inactive)
[21]
  GI50: 28.6 µM (inactive)
[22]
  GI50: 36.6 µM (inactive)
[52]
  GI50: 26.9 µM (inactive)
[23]
  GI50: 13.8 µM (inactive)
[24]
  GI50: 3.5 µM (inactive)
[53]
  GI50: 8.55 µM (inactive)
[54]
  GI50: 14.4 µM (inactive)
[25]
  GI50: 11 µM (inactive)
[55]
  GI50: 13.3 µM (inactive)
[27]
  GI50: 14.7 µM (inactive)
[28]
  GI50: 36.7 µM (inactive)
[29]
  GI50: 7.82 µM (inactive)
[56]
  GI50: 8.05 µM (inactive)
[57]
  GI50: 14.2 µM (inactive)
[58]
  GI50: 9.02 µM (inactive)
[59]
  GI50: 16.2 µM (inactive)
[60]
  GI50: 25.1 µM (inactive)
[31]
  GI50: 33.3 µM (inactive)
[61]
  GI50: 13.2 µM
[62]
  GI50: 16.5 µM (inactive)
[63]
  GI50: > 46.5 µM (inactive)
[33]
  GI50: 30.7 µM (inactive)
[34]
  GI50: 7.41 µM (inactive)
[35]
  GI50: 5.6 µM (inactive)
[36]
  GI50: 3.78 µM (inactive)
[64]
  GI50: 12.4 µM (inactive)
[37]
  GI50: 13.6 µM (inactive)
[38]
  GI50: 13.9 µM (inactive)
[39]
  GI50: 4.35 µM (inactive)

## CC1C(=O)O[B-]2(c3ccccc3)Oc3ccccc3C=[N+]12 (configuration not stated)
[40]
  GI50: > 100 µM (inactive)
[41]
  GI50: > 100 µM (inactive)
[2]
  GI50: > 100 µM (inactive)
[3]
  GI50: > 100 µM (inactive)
[4]
  GI50: 31.3 µM (inactive)
[5]
  GI50: > 100 µM (inactive)
[6]
  GI50: > 100 µM (inactive)
[7]
  GI50: > 100 µM (inactive)
[8]
  GI50: > 100 µM (inactive)
[9]
  GI50: > 100 µM (inactive)
[10]
  GI50: > 100 µM (inactive)
[11]
  GI50: > 100 µM (inactive)
[42]
  GI50: > 100 µM (inactive)
[12]
  GI50: 72.1 µM (inactive)
[43]
  GI50: > 100 µM (inactive)
[13]
  GI50: > 100 µM (inactive)
[44]
  GI50: 96.4 µM (inactive)
[45]
  GI50: > 100 µM (inactive)
[14]
  GI50: > 100 µM (inactive)
[46]
  GI50: > 100 µM (inactive)
[47]
  GI50: > 100 µM (inactive)
[48]
  GI50: > 100 µM (inactive)
[15]
  GI50: > 100 µM (inactive)
[17]
  GI50: > 100 µM (inactive)
[49]
  GI50: > 100 µM (inactive)
[50]
  GI50: > 100 µM (inactive)
[18]
  GI50: > 100 µM (inactive)
[51]
  GI50: > 100 µM (inactive)
[19]
  GI50: > 100 µM (inactive)
[20]
  GI50: > 100 µM (inactive)
[21]
  GI50: > 100 µM (inactive)
[22]
  GI50: > 100 µM (inactive)
[52]
  GI50: > 100 µM (inactive)
[23]
  GI50: > 100 µM (inactive)
[24]
  GI50: > 100 µM (inactive)
[53]
  GI50: > 100 µM (inactive)
[54]
  GI50: > 100 µM (inactive)
[25]
  GI50: > 100 µM (inactive)
[55]
  GI50: > 100 µM (inactive)
[27]
  GI50: > 100 µM (inactive)
[28]
  GI50: > 100 µM (inactive)
[29]
  GI50: > 100 µM (inactive)
[56]
  GI50: 61.2 µM (inactive)
[57]
  GI50: > 100 µM (inactive)
[58]
  GI50: > 100 µM (inactive)
[59]
  GI50: > 100 µM (inactive)
[60]
  GI50: > 100 µM (inactive)
[31]
  GI50: > 100 µM (inactive)
[61]
  GI50: > 100 µM
[62]
  GI50: > 100 µM (inactive)
[63]
  GI50: > 100 µM (inactive)
[33]
  GI50: > 100 µM (inactive)
[34]
  GI50: > 100 µM (inactive)
[35]
  GI50: > 100 µM (inactive)
[36]
  GI50: > 100 µM (inactive)
[64]
  GI50: > 100 µM (inactive)
[37]
  GI50: > 100 µM (inactive)
[38]
  GI50: > 100 µM (inactive)
[39]
  GI50: > 100 µM (inactive)
